Experimental data taken from ChEMBL document CHEMBL3779887, “Robenidine Analogues as Gram-Positive Antibacterial Agents” (J Med Chem, 2016).
In brackets after ≈: the same amount, converted by molar mass. Activity calls are given as the source filed them. No cut-off for these calls is given here.

Assays:
[1] = Cytotoxicity against human HepG2 cells after 24 hrs by WST-1 based colorimetric assay; format: cell-based
Staphylococcus aureus [2] = assay: Antibacterial activity against methicillin-resistant Staphylococcus aureus after 20 to 24 hrs; format: functional
Enterococcus = assay: Antibacterial activity against vancomycin-resistant Enterococcus after 20 to 24 hrs; format: functional
Escherichia coli [3] = assay: Antibacterial activity against Escherichia coli ATCC 25922 after 20 to 24 hrs; format: functional
Pseudomonas aeruginosa [4] = assay: Antibacterial activity against Pseudomonas aeruginosa ATCC 27853 after 20 to 24 hrs; format: functional
Staphylococcus aureus [5] = assay: Antibacterial activity against methicillin-resistant Staphylococcus aureus clinical isolate after 20 to 24 hrs; format: functional
Staphylococcus aureus [6] = assay: Antibacterial activity against Staphylococcus aureus ATCC 29213 after 20 to 24 hrs in presence of 2% heat inactivated bovine serum; format: functional
Staphylococcus aureus [7] = assay: Bactericidal activity against methicillin-resistant Staphylococcus aureus clinical isolate after 24 and 48 hrs; format: functional
Escherichia coli [8] = assay: Antibacterial activity against Escherichia coli ATCC 25922 after 20 to 24 hrs in presence of polymyxin B nonapeptide; format: functional
Pseudomonas aeruginosa [9] = assay: Antibacterial activity against Pseudomonas aeruginosa ATCC 27853 after 20 to 24 hrs in presence of polymyxin B nonapeptide; format: functional
Staphylococcus aureus [10] = assay: Bactericidal activity against methicillin-sensitive Staphylococcus aureus ATCC 29213 assessed as log reduction in bacterial cell number at MIC after 8 hrs by time-kill curve analysis; format: functional
Staphylococcus aureus [11] = assay: Bactericidal activity against methicillin-sensitive Staphylococcus aureus ATCC 29213 assessed as log reduction in bacterial cell number at 2 times MIC after 8 hrs by time-kill curve analysis; format: functional
Staphylococcus aureus [12] = assay: Bactericidal activity against methicillin-sensitive Staphylococcus aureus ATCC 29213 assessed as log reduction in bacterial cell number at 4 times MIC after 8 hrs by time-kill curve analysis; format: functional
Staphylococcus aureus [13] = assay: Bactericidal activity against methicillin-sensitive Staphylococcus aureus ATCC 29213 assessed as log reduction in bacterial cell number at 8 times MIC after 8 hrs by time-kill curve analysis; format: functional
Staphylococcus aureus [14] = assay: Bactericidal activity against methicillin-sensitive Staphylococcus aureus clinical isolate USA300 assessed as log reduction in bacterial cell number at MIC after 8 hrs by time-kill curve analysis; format: functional
Staphylococcus aureus [15] = assay: Bactericidal activity against […] Staphylococcus aureus clinical isolate USA300 assessed as log reduction in bacterial cell number at 2 times MIC after 8 hrs by time-kill curve analysis; format: functional
Staphylococcus aureus [16] = assay: Bactericidal activity against […] Staphylococcus aureus clinical isolate USA300 assessed as log reduction in bacterial cell number at 4 times MIC after 8 hrs by time-kill curve analysis; format: functional
Staphylococcus aureus [17] = assay: Bactericidal activity against […] Staphylococcus aureus clinical isolate USA300 assessed as log reduction in bacterial cell number at 8 times MIC after 8 hrs by time-kill curve analysis; format: functional
Staphylococcus aureus [18] = assay: Bactericidal activity against Methicillin-sensitive Staphylococcus aureus ATCC 29213 assessed as log reduction in bacterial cell number at 2 times MIC after 24 hrs by time kill curve analysis; format: functional, organism-based
Staphylococcus aureus [19] = assay: Bactericidal activity against Methicillin-sensitive Staphylococcus aureus ATCC 29213 assessed as log reduction in bacterial cell number at 4 times MIC after 24 hrs by time kill curve analysis; format: functional, organism-based
Staphylococcus aureus [20] = assay: Bactericidal activity against Methicillin-sensitive Staphylococcus aureus ATCC 29213 assessed as log reduction in bacterial cell number at 8 times MIC after 24 hrs by time-kill curve analysis; format: functional, organism-based
Staphylococcus aureus [21] = assay: Bactericidal activity against […] Staphylococcus aureus clinical isolate USA300 assessed as log reduction in bacterial cell number at MIC after 24 hrs by time-kill curve analysis; format: functional, organism-based
Staphylococcus aureus [22] = assay: Bactericidal activity against […] Staphylococcus aureus clinical isolate USA300 assessed as log reduction in bacterial cell number at 2 times MIC after 24 hrs by time-kill curve analysis; format: functional, organism-based
Staphylococcus aureus [23] = assay: Bactericidal activity against […] Staphylococcus aureus clinical isolate USA300 assessed as log reduction in bacterial cell number at 4 times MIC after 24 hrs by time-kill curve analysis; format: functional, organism-based
Staphylococcus aureus [24] = assay: Bactericidal activity against […] Staphylococcus aureus clinical isolate USA300 assessed as log reduction in bacterial cell number at 8 times MIC after 24 hrs by time-kill curve analysis; format: functional, organism-based
[25] = Toxicity in sheep erythrocytes assessed as hemolysis at 600 uM after 30 mins; format: cell-based, Ovis aries; conditions: erythrocyte, 0.5 h
[26] = Cytotoxicity against human HEL299 cells after 24 hrs by WST-1 based colorimetric assay; format: cell-based, HEL 299
[27] = Lipophilicity, logD of the compound at pH 3; format: physicochemical; conditions: buffer
[28] = Lipophilicity, logD of the compound at pH 7.4; format: physicochemical; conditions: buffer
[29] = Solubility of the compound at pH 2; format: physicochemical; conditions: buffer
[30] = Solubility of the compound at pH 6.5; format: physicochemical; conditions: buffer
[31] = Half life of compound in human liver microsomes; format: ADME
[32] = Half life of compound in mouse liver microsomes; format: ADME
[33] = Intrinsic clearance in human liver microsomes assessed per mg of protein; format: ADME; conditions: read-out: CLH
[34] = Intrinsic clearance in mouse liver microsomes assessed per mg of protein; format: ADME; conditions: read-out: CLH
[35] = Selectivity index, ratio of GI50 for human HEL299 cells to MIC50 for methicillin-sensitive Staphylococcus aureus clinical isolate; format: functional, HEL 299
[36] = Selectivity index, ratio of GI50 for human HEL299 cells to MIC50 for methicillin-resistant Staphylococcus aureus clinical isolate; format: functional, HEL 299
[37] = Selectivity index, ratio of GI50 for human HepG2 cells to MIC50 for methicillin-sensitive Staphylococcus aureus clinical isolate; format: functional
[38] = Selectivity index, ratio of GI50 for human HepG2 cells to MIC50 for methicillin-resistant Staphylococcus aureus clinical isolate; format: functional
Staphylococcus aureus [39] = assay: Antibacterial activity against methicillin-sensitive Staphylococcus aureus ATCC 25923 after 20 to 24 hrs; format: functional
Staphylococcus aureus [40] = assay: Antibacterial activity against methicillin-sensitive Staphylococcus aureus ATCC 6538 after 20 to 24 hrs; format: functional
Staphylococcus aureus [41] = assay: Antibacterial activity against methicillin-sensitive Staphylococcus aureus ATCC 49775 after 20 to 24 hrs; format: functional
Staphylococcus aureus [42] = assay: Antibacterial activity against methicillin-sensitive Staphylococcus aureus ATCC 29213 after 20 to 24 hrs; format: functional
Staphylococcus aureus [43] = assay: Antibacterial activity against methicillin-sensitive Staphylococcus aureus ATCC 6538 after 20 to 24 hrs in presence of 50% heat inactivated bovine serum; format: functional
Staphylococcus aureus [44] = assay: Antibacterial activity against methicillin-sensitive Staphylococcus aureus ATCC 49775 after 20 to 24 hrs in presence of 50% heat inactivated bovine serum; format: functional
Staphylococcus aureus [45] = assay: Antibacterial activity against methicillin-sensitive Staphylococcus aureus ATCC 29213 after 20 to 24 hrs in presence of 50% heat inactivated bovine serum; format: functional
Staphylococcus aureus [46] = assay: Bactericidal activity against methicillin-sensitive Staphylococcus aureus ATCC 25923 after 24 and 48 hrs; format: functional
Staphylococcus aureus [47] = assay: Bactericidal activity against methicillin-sensitive Staphylococcus aureus ATCC 6538 after 24 and 48 hrs; format: functional
Staphylococcus aureus [48] = assay: Bactericidal activity against methicillin-sensitive Staphylococcus aureus ATCC 49775 after 24 and 48 hrs; format: functional
Staphylococcus aureus [49] = assay: Bactericidal activity against methicillin-sensitive Staphylococcus aureus ATCC 29213 after 24 and 48 hrs; format: functional
Staphylococcus aureus [50] = assay: Ratio of MBC for methicillin-sensitive Staphylococcus aureus ATCC 25923 to MIC90 for methicillin-sensitive Staphylococcus aureus ATCC 25923; format: functional
Staphylococcus aureus [51] = assay: Ratio of MBC for methicillin-sensitive Staphylococcus aureus ATCC 6538 to MIC90 for methicillin-sensitive Staphylococcus aureus ATCC 6538; format: functional
Staphylococcus aureus [52] = assay: Ratio of MBC for methicillin-sensitive Staphylococcus aureus ATCC 49775 to MIC90 for methicillin-sensitive Staphylococcus aureus ATCC 49775; format: functional
Staphylococcus aureus [53] = assay: Ratio of MBC for methicillin-sensitive Staphylococcus aureus ATCC 29213 to MIC90 for methicillin-sensitive Staphylococcus aureus ATCC 29213; format: functional
Staphylococcus aureus [54] = assay: Antibacterial activity against methicillin-sensitive Staphylococcus aureus ATCC 29213 after 20 to 24 hrs in presence of 50% heat inactivated bovine serum
Staphylococcus aureus [55] = assay: as above; remark: listed apart in the source
Staphylococcus aureus [56] = assay: Bactericidal activity against Methicillin-sensitive Staphylococcus aureus ATCC 29213 assessed as log reduction in bacterial cell number at MIC after 8 hrs by time kill curve analysis

## CC(C)(C)c1ccc(/C=N/NC(=N)N/N=C/c2ccc(C(C)(C)C)cc2)cc1
[1]
  GI50 at 24 h: 26.3 µM
Staphylococcus aureus [2]
  MIC: 24.2 µM (≈ 9.14 µg/mL)
Enterococcus
  MIC: 29 µM (≈ 10.9 µg/mL)
Escherichia coli [3]
  MIC: > 400 µM
Pseudomonas aeruginosa [4]
  MIC: > 400 µM
Staphylococcus aureus [5]
  MIC90: 4.8 µM (≈ 1.81 µg/mL)
Staphylococcus aureus [6]
  MIC90: 38.6 µM
Staphylococcus aureus [7]
  MBC: 4.8 µM (≈ 1.81 µg/mL)
Escherichia coli [8]
  MIC90: > 250 µM
Pseudomonas aeruginosa [9]
  MIC90: > 250 µM
Staphylococcus aureus [10]
  Activity: >=4 log10CFU/ml
Staphylococcus aureus [11]
  Activity: >=4 log10CFU/ml
Staphylococcus aureus [12]
  Activity: >=4 log10CFU/ml
Staphylococcus aureus [13]
  Activity: >=4 log10CFU/ml
Staphylococcus aureus [14]
  Activity: >=4 log10CFU/ml
Staphylococcus aureus [15]
  Activity: >=4 log10CFU/ml
Staphylococcus aureus [16]
  Activity: >=4 log10CFU/ml
Staphylococcus aureus [17]
  Activity: >=4 log10CFU/ml
Staphylococcus aureus [18]
  Activity: inactive
Staphylococcus aureus [19]
  Activity: inactive
Staphylococcus aureus [20]
  Activity: inactive
Staphylococcus aureus [21]
  Activity: inactive
Staphylococcus aureus [22]
  Activity: inactive
Staphylococcus aureus [23]
  Activity: inactive
Staphylococcus aureus [24]
  Activity: inactive
[25]
  Activity: Non-toxic
[26]
  GI50 at 24 h: 28.8 µM
[27]
  logD: 4.9
[28]
  logD: > 5.3
[29]
  solubility: < 1.6 µg/mL
[30]
  solubility: < 1.6 µg/mL
[31]
  half-life: 20 min
[32]
  half-life: 25 min
[33]
  microsomal CLint: 89 µL/min/mg
[34]
  microsomal CLint: 70 µL/min/mg
[35]
  Selectivity Index: 2
[36]
  Selectivity Index: 2
[37]
  Selectivity Index: 2
[38]
  Selectivity Index: 2
Staphylococcus aureus [39]
  MIC90: 4.8 µM (≈ 1.81 µg/mL)
Staphylococcus aureus [40]
  MIC90: 4.8 µM (≈ 1.81 µg/mL)
Staphylococcus aureus [41]
  MIC90: 4.8 µM (≈ 1.81 µg/mL)
Staphylococcus aureus [42]
  MIC90: 4.8 µM (≈ 1.81 µg/mL)
Staphylococcus aureus [43]
  MIC90: > 250 µM
Staphylococcus aureus [44]
  MIC90: > 250 µM
Staphylococcus aureus [45]
  MIC90: > 250 µM
Staphylococcus aureus [46]
  MBC: 4.8 µM (≈ 1.81 µg/mL)
Staphylococcus aureus [47]
  MBC: 4.8 µM (≈ 1.81 µg/mL)
Staphylococcus aureus [48]
  MBC: 4.8 µM (≈ 1.81 µg/mL)
Staphylococcus aureus [49]
  MBC: 4.8 µM (≈ 1.81 µg/mL)
Staphylococcus aureus [50]
  Ratio: 1
Staphylococcus aureus [51]
  Ratio: 1
Staphylococcus aureus [52]
  Ratio: 1
Staphylococcus aureus [53]
  Ratio: 1
Staphylococcus aureus [54]
  MIC90: > 250 µM
Staphylococcus aureus [55]
  MIC90: > 250 µM
Staphylococcus aureus [56]
  Activity: inactive
